The values that follow come from article PMC5770336, “Characterisation of endogenous A2A and A2B receptor-mediated cyclic AMP responses in HEK 293 cells using the GloSensor™ biosensor: Evidence for an allosteric mechanism of action for the A2B-selective antagonist PSB 603” (Biochemical Pharmacology, 2018).

Values joined by “and” are separate entries in the source; they are usually repeats but may differ in a detail not shown here. Equal values may be shown once. “Also recorded” adds a separate entry of the source. Read-outs that look alike come from different tables or passages of the source.

Assay [1] deals with T1, A2BAR (Homo sapiens, UniProt P29275).
T1 construct: Gs-coupled A2BARs endogenously expressed in HEK293 cells; host or cells: HEK293G (HEK293 stably expressing the GloSensor 20F cAMP biosensor)
T1 sequence (P29275 1-332): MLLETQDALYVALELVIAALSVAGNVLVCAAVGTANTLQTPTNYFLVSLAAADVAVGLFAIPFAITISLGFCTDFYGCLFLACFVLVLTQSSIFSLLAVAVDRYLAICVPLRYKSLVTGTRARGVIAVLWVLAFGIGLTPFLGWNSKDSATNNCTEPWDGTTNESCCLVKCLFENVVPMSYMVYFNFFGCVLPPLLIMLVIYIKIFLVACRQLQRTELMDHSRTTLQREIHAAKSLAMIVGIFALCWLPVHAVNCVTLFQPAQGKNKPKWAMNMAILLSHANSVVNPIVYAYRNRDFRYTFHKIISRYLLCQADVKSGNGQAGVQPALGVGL
Kind of assay: GloSensor cAMP luminescence assay in HEK293G cells, endogenous A2BAR-mediated responses (NECA, adenosine, BAY 60-6583). The class given is cell-based. The settings on record: for antagonism of the response to BAY 60-6583 (in words): 1 μM BAY 60-6583; for mode of antagonism (in words): agonist concentration-response curves with increasing antagonist; for IC50 / pIC50 / inhibition of the response to 10 µM NECA (in words): 30 min pre-incubation; for -Log KB / Kb: apparent KB, modified Gaddum equation; for inhibition of the response to 10 µM NECA (in words): antagonist up to 10 µM. On the procedure: (§1) The cAMP GloSensor™ (20F) biosensor [26] expressed in HEK293 (HEK293G) cells was obtained from Promega (Madison, WI). HEK293G cells were maintained in Dulbecco modified eagles medium (DMEM) supplemented with 2 mM L-glutamine, 10% FCS (fetal calf serum) and 200 μg/ml hygromycin B at 37 °C 5% CO2. […] For the GloSensor™ assay, cells were re-suspended in DMEM supplemented with 2 mM L-glutamine and 10% FCS and seeded at a density of 35000 cells/well on poly-l-lysine treated clear bottomed white walled 96 well plates. Cells were incubated at 37°C 5% CO2 overnight prior to assay.
(§2) The GloSensor™ assay was carried out as per manufacturer’s instructions (Promega, Madison, WI, USA). […] Agonist concentration response curves were simultaneously obtained (in the absence of antagonist).

Assay [2] concerns the target T2, A2AAR (Homo sapiens, UniProt P29274).
T2 construct: We also provide evidence for a minor population of endogenous A2AAR in this cell line; host or cells: HEK293G (HEK293 stably expressing the GloSensor 20F cAMP biosensor)
Kind of assay: GloSensor cAMP luminescence assay in HEK293G cells, endogenous A2AAR-mediated responses (CGS 21680). The class given is cell-based. On the procedure: as §1, §2

The test system of the next assay is adenylyl cyclase. Kind of assay: Forskolin-stimulated GloSensor cAMP luminescence in HEK293G cells. The class given is cell-based, human. The conditions noted are these: forskolin concentration-response curves, PSB 603 up to 300 nM. How it is done:
The cAMP GloSensor™ (20F) biosensor [26] expressed in HEK293 (HEK293G) cells was obtained from Promega (Madison, WI). HEK293G cells were maintained in Dulbecco modified eagles medium (DMEM) supplemented with 2 mM L-glutamine, 10% FCS (fetal calf serum) and 200 μg/ml hygromycin B at 37 °C 5% CO2. Once confluent, cells were dislodged from the flask surface by gentle shaking after incubation in 0.25% trypsin and cell pellet formed following 5 min 1000 g centrifugation. For the GloSensor™ assay, cells were re-suspended in DMEM supplemented with 2 mM L-glutamine and 10% FCS and seeded at a density of 35000 cells/well on poly-l-lysine treated clear bottomed white walled 96 well plates. Cells were incubated at 37°C 5% CO2 overnight prior to assay.
The GloSensor™ assay was carried out as per manufacturer’s instructions (Promega, Madison, WI, USA).

For assay [3], the target named is A2AAR. The settings on record: cited from earlier work.
The target in assay [4] is A2BAR. The conditions noted are these: cited from earlier work.
The mark [5] stands for this setting: antagonism of BAY 60-6583 (1 µM) response, HEK293G.
[6] abbreviates: antagonism of NECA (10 µM) response, HEK293G.
[7] abbreviates: antagonism of adenosine (10 µM) response, HEK293G.

T2 sequence (P29274 whole entry): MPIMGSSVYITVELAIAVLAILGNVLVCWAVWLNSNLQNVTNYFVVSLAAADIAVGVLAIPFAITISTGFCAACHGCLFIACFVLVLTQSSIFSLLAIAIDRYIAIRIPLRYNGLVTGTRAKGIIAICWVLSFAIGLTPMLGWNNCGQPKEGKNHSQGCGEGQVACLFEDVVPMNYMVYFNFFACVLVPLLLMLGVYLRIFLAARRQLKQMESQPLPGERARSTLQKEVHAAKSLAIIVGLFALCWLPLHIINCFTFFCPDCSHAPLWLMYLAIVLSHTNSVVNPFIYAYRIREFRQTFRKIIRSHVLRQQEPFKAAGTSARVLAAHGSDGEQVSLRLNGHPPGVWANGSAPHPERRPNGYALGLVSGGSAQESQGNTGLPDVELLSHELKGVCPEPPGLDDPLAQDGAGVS

Usually EC50 stands for the concentration at which the effect is half-maximal. A lower EC50 goes with an effect from little substance. One may read the Emax as the size of the effect at its maximum, as opposed to the concentration needed. Consider `N#Cc1c(N)nc(SCC(N)=O)c(C#N)c1-c1ccc(OCC2CC2)cc1` [BAY 60-6583, 2-[[6-Amino-3,5-dicyano-4-[4-(cyclopropylmethoxy)phenyl]-2-pyridinyl]thio]-acetamide], for which the EC50 on A2BAR [1] (BAY 60-6583 pEC50, PSB 603 0 nM) is 407 nM; at A2BAR [1] (BAY 60-6583 pEC50, PSB 603 30 nM) it was 1580 nM; on A2BAR [1] (BAY 60-6583 pEC50, PSB 603 100 nM), 4570 nM; on A2BAR [1] (BAY 60-6583 pEC50, PSB 603 300 nM), more than 30000 nM; on A2BAR [1] (BAY 60-6583 pEC50, XAC 0 nM) it was 380 nM; at A2BAR [1] (BAY 60-6583 pEC50, XAC 100 nM) it was 1320 nM. The EC50 at A2BAR [1] (BAY 60-6583 pEC50, XAC 300 nM) is 2240 nM; at A2BAR [1] (BAY 60-6583 pEC50, XAC 1000 nM), 9330 nM; on A2BAR [1] (BAY 60-6583 pEC50, ZM 241385 0 nM), 347 nM; at A2BAR [1] (BAY 60-6583 pEC50, ZM 241385 100 nM) it was 1410 nM; at A2BAR [1] (BAY 60-6583 pEC50, ZM 241385 300 nM), 2140 nM; at A2BAR [1] (BAY 60-6583 pEC50, ZM 241385 1000 nM), 7240 nM. Moreover, it took 646 nM to reach a half-maximal effect at A2BAR [1] (agonist pEC50, cAMP Glosensor luminescence, peak luminescence, HEK 293 cells, no antagonist (Fig. 4)) (EC50). The maximum response (Emax) at 0.03 µM at A2BAR [1] (HEK293G, read-out: BAY 60-6583 Emax, PSB 603 30 nM, percentage of response to 10 µM BAY 60-6583) turned out to be 82.2 ± 1.64%. Besides, the Emax at 0.1 µM was found to be 68.7 ± 6.78% at A2BAR [1] (HEK293G, read-out: BAY 60-6583 Emax, PSB 603 100 nM, percentage of response to 10 µM BAY 60-6583) and 99 ± 7.14% at A2BAR [1] (HEK293G, read-out: BAY 60-6583 Emax, ZM 241385 100 nM, percentage of response to 10 μM BAY 60-6583). Further, the Emax at 0.3 µM came out at 99.3 ± 26.6% on A2BAR [1] (HEK293G, read-out: BAY 60-6583 Emax, PSB 603 300 nM, percentage of response to 10 µM BAY 60-6583) and 80.8 ± 8.36% at A2BAR [1] (HEK293G, read-out: BAY 60-6583 Emax, ZM 241385 300 nM, percentage of response to 10 μM BAY 60-6583). Besides, the Emax on A2BAR [1] (HEK293G, read-out: BAY 60-6583 Emax, XAC 0 nM, percentage of response to 10 μM BAY 60-6583) was determined as 104 ± 5.27%; on A2BAR [1] (HEK293G, read-out: BAY 60-6583 Emax, XAC 100 nM, percentage of response to 10 μM BAY 60-6583), 96.6 ± 4.8%; on A2BAR [1] (HEK293G, read-out: BAY 60-6583 Emax, XAC 300 nM, percentage of response to 10 μM BAY 60-6583) it was 85.6 ± 5.04%; at A2BAR [1] (HEK293G, read-out: BAY 60-6583 Emax, XAC 1000 nM, percentage of response to 10 μM BAY 60-6583) it was 55.9 ± 7.86%. The Emax at 1 µM at A2BAR [1] (HEK293G, read-out: BAY 60-6583 Emax, ZM 241385 1000 nM, percentage of response to 10 μM BAY 60-6583) came out at 54.1 ± 8.41%. The “BAY 60-6583 Emax” value on A2BAR [1] (PSB 603 0 nM, percentage of response to 10 µM BAY 60-6583) is recorded as 104.40 ± 5.14%; at A2BAR [1] (ZM 241385 0 nM, percentage of response to 10 μM BAY 60-6583), 100.80 ± 4.61%. Also, at A2BAR [1] (relative to adenosine and NECA, HEK293G), the “agonist efficacy (in words)” value was “partial agonist”.

As usually defined, the IC50 is the concentration that gives 50% inhibition. By pIC50 is commonly meant the negative decadic logarithm of the IC50, by convention in mol/L. Read a high pIC50 as a low IC50. By Ki is commonly meant a dissociation constant, usually derived from enzyme kinetics or from competition with a known ligand. `CCCn1c(=O)[nH]c2nc(-c3ccc(S(=O)(=O)N4CCN(c5ccc(Cl)cc5)CC4)cc3)[nH]c2c1=O` [PSB 603]: the “antagonism of the response to BAY 60-6583 (in words)” value at A2BAR [1] is “completely abolish the response”. Moreover, the “maximal inhibition of the NECA response” value at A2BAR [1] (10 µM NECA, % of the maximal response to NECA) was 81.7 ± 2.4% and 80%. Also, the “inhibition of the response to 10 µM adenosine” value on A2BAR [1] (10 µM antagonist) is 80.5 ± 3.0% and 80%. For the same molecule, on A2BAR [1], the “mode of antagonism (in words)” value is listed as “non-competitive antagonism”. The results for the half-maximal inhibitory concentration (IC50) against A2BAR [1] (setting [5]), at A2BAR [1] (setting [6]) and against A2BAR [1] (setting [7]) were 17.4 nM, 49.8 nM and 141 nM, respectively. In addition, the pIC50 on A2BAR [1] (setting [5]) was found to be 7.86 ± 0.13; on A2BAR [1] (setting [6]), 7.53 ± 0.22; at A2BAR [1] (setting [7]), 7.56 ± 0.43. Besides, the “-Log KB” value is reported as 8.55 ± 0.13 on A2BAR [1] (agonist BAY 60-6583 (1 µM)), 8.50 ± 0.22 at A2BAR [1] (agonist NECA (10 µM)) and 7.89 ± 0.43 on A2BAR [1] (agonist adenosine (10 µM)). In addition, the Kb is 3.6 nM on A2BAR [1] (agonist BAY 60-6583 (1 µM)), 5.3 nM at A2BAR [1] (agonist NECA (10 µM)) and 66.3 nM at A2BAR [1] (agonist adenosine (10 µM)). On A2BAR [1] (limiting level of antagonism, kinetic profile, 10 μM NECA), the “residual peak response to NECA” value is “circa 20%”. The “antagonism of the CGS 21680 response (in words)” value on A2AAR [2] (1 μM CGS 21680, competition curves) is “unable to inhibit; also recorded: not affected”. Besides, the “effect of pre-incubation on CGS 21680 concentration-response curves (in words)” value on A2AAR [2] (PSB 603 up to 300 nM) is given as “did not affect; also recorded: completely unaffected”. Further, in the assay with adenylyl cyclase, the “effect of pre-incubation on the response to forskolin (in words)” value is “did not affect; also recorded: completely unaffected”. Further, the inhibition constant Ki at A2AAR [3] was more than 10000 nM; at A2BAR [4], 0.5 nM.

In the case of `Nc1nc2c(cnn2CCc2ccccc2)c2nc(-c3ccco3)nn12` [SCH 58261, 2-(2-Furanyl)-7-(2-phenylethyl)-7H-pyrazolo [4,3-e][1,2,4] triazolo[1,5-c]pyrimidin-5-amine], at A2BAR [1], the “antagonism of the response to BAY 60-6583 (in words)” value is recorded as “weak antagonist” and the “inhibition of the response to 10 µM NECA (in words)” value is “failed to inhibit”. Besides, on A2BAR [1] (highest concentration tested, not statistically significant), the “inhibition of the adenosine response” value is “approximately 35%”. For the same molecule, the “antagonism of the CGS 21680 response (in words)” value on A2AAR [2] is “complete concentration-dependent antagonism”. In addition, the Ki at A2BAR [4] was 5010 nM.

As for `Nc1nc(NCCc2ccc(O)cc2)nc2nc(-c3ccco3)nn12` [ZM 241385, 4-(2-[7-Amino-2-(2-furyl)[1,2,4]triazolo[2,3-a][1,3,5]triazin-5-ylamino]ethyl)phenol], at A2BAR [1], the “inhibition of the response to 10 µM NECA (in words)” value is recorded as “complete inhibition” and the “mode of antagonism (in words)” value was “competitive interaction”.
